Results on 18 compounds are retold here after US11702422B2, “Imidazopyridazines as modulators of IL-17” (Janssen Pharmaceutica NV, priority 2020, dated 2023).

Experiment [1] deals with IL-17A(FLAG-Tagged): IL-17RA(His-Tagged) (Homo sapiens, UniProt Q16552, K93Q). As to the kind of experiment: IL-17A(FLAG-Tagged): IL-17RA(His-Tagged) Binding Disruption Eu-HTRF Assay. The settings on record: IL-17A/IL-17RA binding disruption, simple average if tested more than once. In a few lines: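 IC50 comes from a one-site competition fit of the HTRF 665/620 nm ratio. Compound dilutions (2-fold, 22 points) were held 1 h rt with FLAG-tagged IL-17A dimer, then His-tagged IL-17RA plus Eu-cryptate anti-FLAG and D2 anti-His antibodies were added for 2 h rt.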
A general note: In TR-FRET formats the signal depends on donor and acceptor labels being close together.

In experiment [2] the test system is IL-17A-induced G-CSF production in human normal keratinocyte (NHK). As to the kind of experiment: NHK Assay: IL-17A-induced G-CSF production in human normal keratinocytes. The experiment is classed as cell-based. As to conditions: adult normal human keratinocytes, IL-17A 5 ng/mL, 24 h, simple average if tested more than once. The procedure, abridged:
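Compound is first combined with recombinant human IL-17A for 1 h at rt, and the mix is added to adult normal human keratinocytes so that IL-17A is 5 ng/mL. After 24 h at 37° C in 5% FBS, G-CSF released into the medium is read by HTRF and IC50 derived.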

Some results are limits rather than exact numbers.

Sequence of UniProt Q16552 (Q16552 with tags, fused parts or gaps K93Q): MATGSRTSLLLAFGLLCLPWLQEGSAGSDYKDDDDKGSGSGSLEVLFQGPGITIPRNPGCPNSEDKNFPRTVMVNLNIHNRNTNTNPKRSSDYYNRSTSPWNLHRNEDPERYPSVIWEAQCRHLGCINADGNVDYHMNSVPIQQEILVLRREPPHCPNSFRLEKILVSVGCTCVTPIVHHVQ

Take `Cc1nonc1C(=O)N[C@H](c1cn2ncc([C@H](NC(=O)C(C)CC(F)(F)F)C3CC3)cc2n1)C1CCC(F)(F)CC1` (single isomer, unassigned) [Example 346, N—((S)-(7-((R)-Cyclopropyl((R*)-4,4,4-trifluoro-2-methylbutanamido)methyl)imidazo[1,2-b]pyridazin-2-yl)(4,4-difluorocyclohexyl)methyl)-4-methyl-1,2,5-oxadiazole-3-carboxamide]: the IC50 in experiment [1] came out at 150 nM; in experiment [2], 440 nM.
For the compound `Cc1nonc1C(=O)N[C@H](c1cn2ncc([C@H](NC(=O)C(C)CC(F)(F)F)C3CC3)cc2n1)C1CCC(F)(F)CC1` (single isomer, unassigned) [Example 347, N—((S)-(7-((R)-Cyclopropyl((S*)-4,4,4-trifluoro-2-methylbutanamido)methyl)imidazo[1,2-b]pyridazin-2-yl)(4,4-difluorocyclohexyl)methyl)-4-methyl-1,2,5-oxadiazole-3-carboxamide], the results for the IC50 in experiment [1] and in experiment [2] were 470 nM and 1600 nM, respectively.
For the compound `Cc1nonc1C(=O)N[C@H](c1cn2ncc([C@H](NC(=O)C(F)C3CCC3)C3CC3)cc2n1)C1CCC(F)(F)CC1` (single isomer, unassigned) [Example 348, N—((S)-(7-((R)-((R*)-2-Cyclobutyl-2-fluoroacetamido)(cyclopropyl)methyl)imidazo[1,2-b]pyridazin-2-yl)(4,4-difluorocyclohexyl)methyl)-4-methyl-1,2,5-oxadiazole-3-carboxamide], the IC50 in experiment [1] was found to be 69 nM; in experiment [2], 220 nM.
With `Cc1nonc1C(=O)N[C@H](c1cn2ncc([C@H](NC(=O)C(F)C3CCC3)C3CC3)cc2n1)C1CCC(F)(F)CC1` (single isomer, unassigned) [Example 349, N—((S)-(7-((R)-((S*)-2-Cyclobutyl-2-fluoroacetamido)(cyclopropyl)methyl)imidazo[1,2-b]pyridazin-2-yl)(4,4-difluorocyclohexyl)methyl)-4-methyl-1,2,5-oxadiazole-3-carboxamide], the half-maximal inhibitory concentration (IC50) is 420 nM in experiment [1] and 1700 nM in experiment [2].
Take `Cc1nonc1C(=O)N[C@H](c1cn2ncc([C@H](NC(=O)CC(C)CC(F)(F)F)C3CC3)cc2n1)C1CCC(F)(F)CC1` (single isomer, unassigned) [Example 350, N—((S)-(7-((R)-Cyclopropyl((R*)-5,5,5-trifluoro-3-methylpentanamido)methyl)imidazo[1,2-b]pyridazin-2-yl)(4,4-difluorocyclohexyl)methyl)-4-methyl-1,2,5-oxadiazole-3-carboxamide]: the IC50 in experiment [1] was determined as 270 nM; in experiment [2] (Homo sapiens, Keratinocyte), 660 nM.
The corresponding values for `O=C(CCC(F)(F)F)N[C@@H](c1cnn2cc([C@@H](NC(=O)[C@@H]3C[C@H]3C(F)F)C3CCC(F)(F)CC3)nc2c1)C1CC1` (single isomer, unassigned) [Example 360] are 2700 nM and greater than 20000 nM.
Consider `O=C(CCC(F)(F)F)N[C@@H](c1cnn2cc([C@@H](NC(=O)[C@H]3C[C@@H]3C(F)F)C3CCC(F)(F)CC3)nc2c1)C1CC1` (single isomer, unassigned) [Example 361], for which the IC50 is 210 nM in experiment [1] and 1700 nM in experiment [2] (Homo sapiens, Keratinocyte).
Take `CC(O)c1nonc1C(=O)N[C@H](c1cn2ncc([C@H](NC(=O)CC3CC(F)(F)C3)C3CC3)cc2n1)C1CCC(F)(F)CC1` (single isomer, unassigned) [Example 395, N—((S)-(7-((R)-Cyclopropyl(2-(3,3-difluorocyclobutyl)acetamido)methyl)imidazo[1,2-b]pyridazin-2-yl)(4,4-difluorocyclohexyl)methyl)-4-((R*)-1-hydroxyethyl)-1,2,5-oxadiazole-3-carboxamide]: the IC50 in experiment [1] came out at 48 nM; in experiment [2] (Homo sapiens, Keratinocyte), 170 nM.
On to `CC(O)c1nonc1C(=O)N[C@H](c1cn2ncc([C@H](NC(=O)CC3CC(F)(F)C3)C3CC3)cc2n1)C1CCC(F)(F)CC1` (single isomer, unassigned) [Example 396, N—((S)-(7-((R)-Cyclopropyl(2-(3,3-difluorocyclobutyl)acetamido)methyl)imidazo[1,2-b]pyridazin-2-yl)(4,4-difluorocyclohexyl)methyl)-4-((S*)-1-hydroxyethyl)-1,2,5-oxadiazole-3-carboxamide], for which the IC50 in experiment [1] turned out to be 50 nM; in experiment [2] it was 190 nM.
The corresponding values for `Cc1nonc1C(=O)N[C@H](c1cn2ncc(C(CC#N)NC(=O)CC3CC(F)(F)C3)cc2n1)C1CCC(F)(F)CC1` (single isomer, unassigned) [Example 397, N—((S)-(7-((S*)-2-Cyano-1-(2-(3,3-difluorocyclobutyl)acetamido)ethyl)imidazo[1,2-b]pyridazin-2-yl)(4,4-difluorocyclohexyl)methyl)-4-methyl-1,2,5-oxadiazole-3-carboxamide] are 120 nM and 600 nM.
`N#CCC(NC(=O)CC1CC(F)(F)C1)c1cnn2cc([C@@H](NC(=O)c3nonc3C3CC3)C3CCC(F)(F)CC3)nc2c1` (single isomer, unassigned) [Example 398, N—((S)-(7-((S*)-2-Cyano-1-(2-(3,3-difluorocyclobutyl)acetamido)ethyl)imidazo[1,2-b]pyridazin-2-yl)(4,4-difluorocyclohexyl)methyl)-4-cyclopropyl-1,2,5-oxadiazole-3-carboxamide]: the IC50 in experiment [1] is 42 nM; in experiment [2] (Homo sapiens, Keratinocyte), 71 nM.
As to `CC(C)n1nccc1C(=O)N[C@H](c1cn2ncc(C(CC#N)NC(=O)CC3CC(F)(F)C3)cc2n1)C1CCC(F)(F)CC1` (single isomer, unassigned) [Example 399, N—((S)-(7-((S*)-2-Cyano-1-(2-(3,3-difluorocyclobutyl)acetamido)ethyl)imidazo[1,2-b]pyridazin-2-yl)(4,4-difluorocyclohexyl)methyl)-1-isopropyl-1H-pyrazole-5-carboxamide], the half-inhibitory concentration (IC50) in experiment [1] was 310 nM; in experiment [2], 94 nM.
`O=C(CC1CC(F)(F)C1)NC(CC(F)F)c1cnn2cc([C@@H](NC(=O)c3nonc3C3CC3)C3CCC(F)(F)CC3)nc2c1` (single isomer, unassigned) [Example 400, 4-Cyclopropyl-N—((S)-(7-((R*)-1-(2-(3,3-difluorocyclobutyl)acetamido)-3,3-difluoropropyl)imidazo[1,2-b]pyridazin-2-yl)(4,4-difluorocyclohexyl)methyl)-1,2,5-oxadiazole-3-carboxamide]: the IC50 is 49 nM in experiment [1] and 35 nM in experiment [2] (Homo sapiens, Keratinocyte).
As for `O=C(CC1CC(F)(F)C1)N[C@@H](c1cnn2cc([C@@H](NC(=O)c3nonc3C(O)C3CC3)C3CCC(F)(F)CC3)nc2c1)C1CC1` (single isomer, unassigned) [Example 401, N—((S)-(7-((R)-Cyclopropyl(2-(3,3-difluorocyclobutyl)acetamido)methyl)imidazo[1,2-b]pyridazin-2-yl)(4,4-difluorocyclohexyl)methyl)-4-((R*)-cyclopropyl(hydroxy)methyl)-1,2,5-oxadiazole-3-carboxamide], the IC50 in experiment [1] amounted to 150 nM; in experiment [2] (Homo sapiens, Keratinocyte), 57 nM.
As to `O=C(CC1CC(F)(F)C1)N[C@@H](c1cnn2cc([C@@H](NC(=O)c3nonc3C(O)C3CC3)C3CCC(F)(F)CC3)nc2c1)C1CC1` (single isomer, unassigned) [Example 402, N—((S)-(7-((R)-Cyclopropyl(2-(3,3-difluorocyclobutyl)acetamido)methyl)imidazo[1,2-b]pyridazin-2-yl)(4,4-difluorocyclohexyl)methyl)-4-((S*)-cyclopropyl(hydroxy)methyl)-1,2,5-oxadiazole-3-carboxamide], the IC50 in experiment [1] and in experiment [2] was 110 nM throughout.
`O=C(CC1CC(F)(F)C1)NC(c1cnn2cc([C@@H](NC(=O)c3nonc3C3CC3)C3CCC(F)(F)CC3)nc2c1)C(F)(F)F` (single isomer, unassigned) [Example 421, 4-Cyclopropyl-N—((S)-(7-((S*)-1-(2-(3,3-difluorocyclobutyl)acetamido)-2,2,2-trifluoroethyl)imidazo[1,2-b]pyridazin-2-yl)(4,4-difluorocyclohexyl)methyl)-1,2,5-oxadiazole-3-carboxamide]: the IC50 is 98 nM in experiment [1] and 43 nM in experiment [2] (Homo sapiens, Keratinocyte).
Consider `CC(C)n1nccc1C(=O)N[C@H](c1cn2ncc(C(NC(=O)CC3CC(F)(F)C3)C(F)(F)F)cc2n1)C1CCC(F)(F)CC1` (single isomer, unassigned) [Example 422, N—((S)-(7-((S*)-1-(2-(3,3-Difluorocyclobutyl)acetamido)-2,2,2-trifluoroethyl)imidazo[1,2-b]pyridazin-2-yl)(4,4-difluorocyclohexyl)methyl)-1-isopropyl-1H-pyrazole-5-carboxamide], for which the IC50 in experiment [1] amounted to 260 nM; in experiment [2] (Homo sapiens, Keratinocyte), 82 nM.
`Cc1nonc1C(=O)N[C@H](c1cn2ncc(C(NC(=O)CC3CC(F)(F)C3)C3(C#N)CC3)cc2n1)C1CCC(F)(F)CC1` (single isomer, unassigned) [Example 423, N—((S)-(7-((S*)-(1-Cyanocyclopropyl)(2-(3,3-difluorocyclobutyl)acetamido)methyl)imidazo[1,2-b]pyridazin-2-yl)(4,4-difluorocyclohexyl)methyl)-4-methyl-1,2,5-oxadiazole-3-carboxamide]: the IC50 in experiment [1] came to 78 nM; in experiment [2] (Homo sapiens, Keratinocyte) it was 130 nM.

For orientation: IC50 means the concentration needed to halve the response being measured. Higher therefore signals a need for much substance.
